Assay results reported in US9167822B2, “Antifungal compositions” (DSM IP ASSETS B.V., priority 2012, dated 2015).
“And” between values parts separate entries of the source, which are not always exact repeats. Equal entries are not always repeated.

Experiments:
[1] = test system: Penicillium italicum; assay: Treatment of apples wounded and inoculated with Penicillium italicum, then dipped; type: in vivo; conditions: for Number of moulded apples/total number of 10 apples: 500 ppm natamycin; for Number of moulded apples per total of 10 apples: 250 ppm natamycin
Description: Ten fresh, organic apples were used per treatment. Each apple was wounded once using a cork borer according to the method described by de Lapeyre de Bellaire and Dubois (1987). Subsequently, each wound was inoculated with 10 μl of a Penicillium italicum suspension containing 1×10^6 of spores/ml. […] The pH of the compositions was 4. A composition without natamycin or bixafen was used as control. The treated apples were incubated in a closed box in the dark at 20° C. […]
During incubation, the treated apples were assessed on mould growth according to the two methods described in Example 3. […]

[2] = test system: Botrytis cinerea; assay: Treatment of strawberries: wounded, inoculated with Botrytis cinerea, then dipped in antifungal composition; type: in vivo
Description: (§1) Ten fresh, organic strawberries were used per treatment. Each strawberry was wounded with a 0.5 mm long cut and each wound was inoculated with 10 μl of a Botrytis cinerea suspension containing 1×10^5 of spores/ml. […] The pH of the compositions was 4. A composition without natamycin or bixafen was used as control. The treated strawberries were incubated in a closed box in the dark at 20° C.
(§2) During incubation, mould growth on the strawberries was assessed in a twofold manner: (i) the number of moulded strawberries per total of 10 strawberries was counted; and (ii) the antifungal activity (in %) of the individual and combined active ingredients was determined by calculating the reduction in mould growth observed on the strawberries treated with the antifungal composition in comparison to the mould growth on the strawberries treated with the control composition. The expected antifungal activity (E in %) of the combined antifungal composition comprising both active ingredients was calculated according to the Colby equation (Colby, 1967): E=X+Y−[(X·Y)/100] wherein X and Y are the observed antifungal activities (in %) of the individual active ingredients X and Y, respectively. If the observed antifungal activity (O in %) of the combination exceeds the expected antifungal activity (E in %) of the combination and the synergy factor O/E is thus >1.0, the combined application of the active ingredients leads to a synergistic antifungal effect.
The treated strawberries were assessed on mould growth. The antifungal activity (in %) of the individual and combined active ingredients was determined according to the method described in Example 3. […]

[3] = test system: Botrytis cinerea; assay: Treatment of strawberries: wounded, dipped in antifungal composition, then inoculated with Botrytis cinerea; type: in vivo; conditions: 1000 ppm bixafen or both
Description: as §1, §2
After treatment, each strawberry was inoculated with 10 μl of a Botrytis cinerea suspension containing 1×10^5 of spores/ml. The treated strawberries were assessed on mould growth according to the two methods described in Example 3.

[4] = test system: Penicillium italicum; assay: In vitro antifungal activity, 96-well microtiter plates; type: cell-based; conditions: 25° C.
Description: Subsequently, 100 μl of a Botrytis cinerea suspension prepared in PCB medium was used to inoculated each well with 2.5×10^3 spores/ml.
After incubation of the microtiter plates at 25° C., the in vitro antifungal activity (%) of the individual active ingredients was assessed by calculating the reduction in mould growth observed in the presence of the active ingredient in comparison to the mould growth observed in the absence of the active ingredient. The expected antifungal activity (E in %) of the active ingredient combination was calculated according to the Colby equation (Colby, 1967): E=X+Y−[(X·Y)/100] wherein X and Y are the observed antifungal activities (in %) of the individual active ingredients X and Y, respectively. If the observed antifungal activity (O in %) of the combination exceeds the expected antifungal activity (E in %) of the combination and the resulting synergy factor O/E is thus >1.0, the combined application of the active ingredients leads to a synergistic antifungal effect.
Furthermore, Penicillium italicum was used for inoculation.

[5] = test system: Penicillium italicum; assay: Treatment of mandarins wounded and inoculated with Penicillium italicum, then dipped; type: in vivo
Description: Ten fresh, organic mandarins were used per treatment. The peel of each mandarin was wounded once using a cork borer according to the method described by de Lapeyre de Bellaire and Dubois (1987). Subsequently, each wound was inoculated with 10 μl of a Penicillium italicum suspension containing 1×10^5 of spores/ml. […] The pH of the compositions was 4.
The treated mandarins were incubated in a closed box in the dark at 20° C. and assessed on mould growth during incubation.

[6] = day 3, 500 ppm natamycin, 2000 ppm bixafen or both
[7] = day 6, 250 ppm natamycin, 500 ppm bixafen or both
[8] = day 6, 500 ppm natamycin, 1000 ppm bixafen or both
[9] = day 6, 500 ppm natamycin, 2000 ppm bixafen or both
[10] = day 7, 250 ppm natamycin, 500 ppm bixafen or both
[11] = day 9, 250 ppm natamycin, 500 ppm bixafen or both
[12] = day 9, 500 ppm natamycin, 2000 ppm bixafen or both
[13] = day 11, 500 ppm natamycin, 2000 ppm bixafen or both
[14] = day 14, 500 ppm natamycin, 1000 ppm bixafen or both
[15] = day 14, 500 ppm natamycin, 2000 ppm bixafen or both
[16] = day 4, 250 ppm natamycin, 250 ppm bixafen or both
[17] = day 4, 250 ppm natamycin, 500 ppm bixafen or both
[18] = day 4, 500 ppm natamycin, 2000 ppm bixafen or both
[19] = day 6, 250 ppm natamycin, 250 ppm bixafen or both
[20] = day 7, 250 ppm natamycin, 250 ppm bixafen or both

C[C@@H]1C/C=C/C=C/C=C/C=C/[C@H](O[C@@H]2O[C@H](C)[C@@H](O)[C@H](N)[C@@H]2O)C[C@@H]2O[C@](O)(C[C@@H](O)C[C@H]3O[C@@H]3/C=C/C(=O)O1)C[C@H](O)[C@H]2C(=O)O [Natamycin, natamycin]
Number of moulded apples/total number of 10 apples ([1]; Day 3, 20° C., 1000 ppm bixafen or both): 9 and 9/10 | Number of moulded apples/total number of 10 apples ([1]; Day 3-4, 20° C., 2000 ppm bixafen or both): 9 and 9/10 | Number of moulded apples/total number of 10 apples ([1]; Day 4, 20° C., 1000 ppm bixafen or both): 9 and 9/10 | Number of moulded apples per total of 10 apples ([1]; Day 6, 20° C., 500 ppm bixafen or both): 10 and 10/10 | Number of moulded apples/total number of 10 apples ([1]; Day 6, 20° C., 1000 ppm bixafen or both): 10 and 10/10 | Number of moulded apples/total number of 10 apples ([1]; Day 6, 20° C., 2000 ppm bixafen or both): 10 and 10/10 | Number of moulded apples per total of 10 apples ([1]; Day 6-9, 20° C., 250 ppm bixafen or both): all and 10/10 | Number of moulded apples per total of 10 apples ([1]; Day 7, 20° C., 500 ppm bixafen or both): 10 and 10/10 | Number of moulded apples/total number of 10 apples ([1]; Day 7, 20° C., 1000 ppm bixafen or both): 10 and 10/10 | Number of moulded apples/total number of 10 apples ([1]; Day 7, 20° C., 2000 ppm bixafen or both): 10 and 10/10 | Number of moulded apples per total of 10 apples ([1]; Day 9, 20° C., 500 ppm bixafen or both): 10 and 10/10 | Number of moulded apples/total number of 10 apples ([1]; Day 9-14, 20° C., 1000 ppm bixafen or both): all and 10/10 | Number of moulded apples/total number of 10 apples ([1]; Day 9-14, 20° C., 2000 ppm bixafen or both): all and 10/10 | Number of moulded apples per total of 10 apples ([1]; Day 11-15, 20° C., 250 ppm bixafen or both): all and 10/10 | Observed antifungal activity O (%) ([1]; day 3, 500 ppm natamycin, 1000 ppm bixafen or both): 33% | Observed antifungal activity O (%) [1, 6]: 33% | Observed antifungal activity O (%) ([1]; day 6, 250 ppm natamycin, 250 ppm bixafen or both (bixafen 500 ppm)): 38% | Observed antifungal activity O (%) [1, 7]: 38% | Observed antifungal activity O (%) [1, 8]: 6% | Observed antifungal activity O (%) [1, 9]: 6% | Observed antifungal activity O (%) [1, 10]: 42% | Observed antifungal activity O (%) ([1]; day 9, 250 ppm natamycin, 250 ppm bixafen or both (bixafen 500 ppm)): 35% | Observed antifungal activity O (%) [1, 11]: 35% | Observed antifungal activity O (%) ([1]; day 9, 500 ppm natamycin, 1000 ppm bixafen or both): 21% | Observed antifungal activity O (%) [1, 12]: 21% | Observed antifungal activity O (%) ([1]; day 11, 250 ppm natamycin, 250 ppm bixafen or both (bixafen 500 ppm)): 42% | Observed antifungal activity O (%) ([1]; day 11, 500 ppm natamycin, 1000 ppm bixafen or both): 26% | Observed antifungal activity O (%) [1, 13]: 26% | Observed antifungal activity O (%) ([1]; day 14, 250 ppm natamycin, 250 ppm bixafen or both (bixafen 500 ppm)): 49% | Observed antifungal activity O (%) [1, 14]: 30% | Observed antifungal activity O (%) [1, 15]: 30% | Number of moulded strawberries/total number of 10 strawberries ([2]; Day 3, 20° C., 250 ppm natamycin, 250 ppm bixafen or both): 8 and 8/10 | Number of moulded strawberries/total number of 10 strawberries ([2]; Day 3, 20° C., 500 ppm natamycin, 2000 ppm bixafen or both): 10 and 10/10 | Number of moulded strawberries/total number of 10 strawberries ([2]; Day 4, 20° C., 250 ppm natamycin, 250 ppm bixafen or both): 10 and 10/10 | Number of moulded strawberries/total number of 10 strawberries ([2]; Day 4, 20° C., 500 ppm natamycin, 2000 ppm bixafen or both): 10 and 10/10 | Number of moulded strawberries/total number of 10 strawberries ([2]; Day 5, 20° C., 250 ppm natamycin, 250 ppm bixafen or both): 10 and 10/10 | Number of moulded strawberries/total number of 10 strawberries ([2]; Day 5-6, 20° C., 500 ppm natamycin, 2000 ppm bixafen or both): 10 and 10/10 | Observed antifungal activity O (%) [2, 6]: 21% | Observed antifungal activity O (%) [2, 16]: 6% | Observed antifungal activity O (%) [2, 17]: 6% | Observed antifungal activity O (%) [2, 18]: 16% | Observed antifungal activity O (%) ([2]; day 5, 250 ppm natamycin, 250 ppm bixafen or both): 2% | Observed antifungal activity O (%) ([2]; day 5, 500 ppm natamycin, 2000 ppm bixafen or both): 3% | Observed antifungal activity O (%) [2, 19]: 0% | Observed antifungal activity O (%) [2, 7]: 0% | Observed antifungal activity O (%) [2, 9]: 0% | Observed antifungal activity O (%) [2, 20]: 0% | Observed antifungal activity O (%) [2, 10]: 0% | Observed antifungal activity O (%) ([2]; day 7, 500 ppm natamycin, 2000 ppm bixafen or both): 0% | Observed antifungal activity O (%) [2, 11]: 0% | Observed antifungal activity O (%) [2, 12]: 0% | Observed antifungal activity O (%) ([2]; day 10, 250 ppm natamycin, 500 ppm bixafen or both): 0% | Observed antifungal activity O (%) ([3]; day 3, 500 ppm natamycin): 59% | Number of moulded wounds/total number of 10 wounds ([3]; day 5, 20° C., 250 ppm natamycin): 10 and 10/10 | Observed antifungal activity O (%) ([3]; day 5, 500 ppm natamycin): 19% | Observed antifungal activity O (%) ([3]; day 6, 500 ppm natamycin): 12% | Observed antifungal activity O (%) ([4]; day 10, 0.63 ppm natamycin, 25 ppm isopyrazam or both): 0% | Observed antifungal activity O (%) ([4]; day 10, 1.25 ppm natamycin, 25 ppm bixafen or both): 0% | Observed antifungal activity O (%) ([5]; day 3, 250 ppm natamycin, 250 ppm bixafen or both): 70% | Observed antifungal activity O (%) [5, 16]: 43% | Observed antifungal activity O (%) [5, 17]: 43% | Observed antifungal activity O (%) ([5]; day 4, 500 ppm natamycin, 1000 ppm bixafen or both): 63% | Observed antifungal activity O (%) [5, 18]: 63% | Observed antifungal activity O (%) [5, 19]: 18% | Observed antifungal activity O (%) [5, 7]: 18% | Observed antifungal activity O (%) [5, 8]: 28% | Observed antifungal activity O (%) [5, 9]: 28% | Observed antifungal activity O (%) [5, 20]: 10% | Observed antifungal activity O (%) [5, 10]: 10% | Observed antifungal activity O (%) ([5]; day 7, 500 ppm natamycin, 1000 ppm bixafen or both): 16% | Observed antifungal activity O (%) ([5]; day 9, 250 ppm natamycin, 250 ppm bixafen or both): 8% | Observed antifungal activity O (%) [5, 11]: 8% | Observed antifungal activity O (%) ([5]; day 11, 250 ppm natamycin, 500 ppm bixafen or both): 13% | Observed antifungal activity O (%) [5, 13]: 13% | Observed antifungal activity O (%) ([5]; day 13, 250 ppm natamycin, 500 ppm bixafen or both): 12% | Observed antifungal activity O (%) [5, 14]: 9% | Observed antifungal activity O (%) [5, 15]: 9% | Observed antifungal activity O (%) ([5]; day 15, 250 ppm natamycin, 500 ppm bixafen or both): 6% | Observed antifungal activity O (%) ([5]; day 15, 500 ppm natamycin, 1000 ppm bixafen or both): 5% | Observed antifungal activity O (%) ([5]; day 15, 500 ppm natamycin, 2000 ppm bixafen or both): 5%
